Assays:
[1] = tested on: Vero; test: Cytotoxicity against african green monkey Vero cells; format: cell-based; details: Chlorocebus sabaeus
[2] = tested on: Mycobacterium tuberculosis; test: Antitubercular activity against Mycobacterium tuberculosis H37Rv ATCC 27294 assessed as growth inhibition at 128 uM after 4 days by microplate Alamar blue assay; format: functional; details: H37Rv ATCC 27294, 96 h, read-out: GI
[3] = tested on: Mycobacterium tuberculosis; test: Antitubercular activity against Mycobacterium tuberculosis H37Rv ATCC 27294 assessed as growth inhibition at 128 uM by luminescence-based low oxygen-recovery assay; format: functional; details: read-out: GI

Compound	IC50 [1]	inhibition of growth at 128 µM [2]	inhibition of growth at 128 µM [3]
COc1ccc(C2NC(=O)Nc3c2c(=O)oc2ccccc32)cc1OC (stereo not drawn)	> 128 µM	0%	0%
COc1ccc(C2NC(=O)Nc3c2c(=O)oc2ccc(C)cc32)cc1 (stereo not drawn)	101 µM	58%	62%
COc1ccc(C2NC(=O)Nc3c2c(=O)oc2ccc(C)cc32)cc1OC (stereo not drawn)	> 128 µM	55%	35%
COc1cc(C2NC(=O)Nc3c2c(=O)oc2ccccc32)ccc1O (stereo not drawn)	> 128 µM	37%	1%
O=C1Nc2c(c(=O)oc3ccccc23)C(c2ccccc2O)N1 (stereo not drawn)	122 µM	45%	37%
O=C1Nc2c(c(=O)oc3ccccc23)C(c2cccc(Br)c2)N1 (stereo not drawn)	106 µM	7%	15%
O=c1oc2ccccc2c2c1C(c1ccccc1)NC(=S)N2 (stereo not drawn)	> 128 µM	10%	20%
COc1ccc(C2NC(=S)Nc3c2c(=O)oc2ccccc32)cc1 (stereo not drawn)	> 128 µM	0%	0%
COc1ccc(C2NC(=S)Nc3c2c(=O)oc2ccccc32)cc1OC (stereo not drawn)	> 128 µM	0%	0%
COc1ccc(C2NC(=S)Nc3c2c(=O)oc2ccc(C)cc32)cc1 (stereo not drawn)	> 128 µM	0%	1%
COc1ccc(C2NC(=S)Nc3c2c(=O)oc2ccc(C)cc32)cc1OC (stereo not drawn)	> 128 µM	9%	14%
COc1cc(C2NC(=S)Nc3c2c(=O)oc2ccccc32)ccc1O (stereo not drawn)	> 128 µM	0%	0%
O=c1oc2ccccc2c2c1C(c1cccc(Br)c1)NC(=S)N2 (stereo not drawn)	47.4 µM	12%	59%
Cc1ccc2oc(=O)c3c(c2c1)NC(=S)NC3c1cccc(Br)c1 (stereo not drawn)	47.6 µM	32%	61%
O=C1Nc2c(c(=O)oc3ccccc23)C(c2ccccc2)N1 (stereo not drawn)	84.7 µM	0%	17%
COc1ccc(C2NC(=O)Nc3c2c(=O)oc2ccccc32)cc1 (stereo not drawn)	119 µM	8%	4%

From ChEMBL document CHEMBL2424610, “Design, synthesis, and evaluation of 4-(substituted)phenyl-2-thioxo-3,4-dihydro-1H-chromino[4,3-d]pyrimidin-5-one and 4-(substituted)phenyl-3,4-dihydro-1H-chromino[4,3-d]pyrimidine-2,5-dione analogs as antitubercular agents” (Med Chem Res, 2013)
